Reference: PubChem BioAssay (NCI)
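Interpolation was linear, between the two tested concentrations surrounding the appropriate level; five concentrations were tested over 48 hours in 96-well plates. TGI is the concentration that stops growth completely.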

Key:
Test in all cases: inhibition of tumour cell growth, NCI panel, 48 h
SF-268 CNS = test system: SF-268 CNS
OVCAR-4 ovarian = test system: OVCAR-4 ovarian
MOLT-4 leukemia = test system: MOLT-4 leukemia
SNB-19 CNS = test system: SNB-19 CNS
SN12C renal = test system: SN12C renal
RPMI-8226 leukemia = test system: RPMI-8226 leukemia
NCI-H226 lung = test system: NCI-H226 lung
LOX IMVI melanoma = test system: LOX IMVI melanoma
RXF 393 renal = test system: RXF 393 renal
NCI-H522 lung = test system: NCI-H522 lung

Row | SMILES | TGI (SF-268 CNS) | TGI (OVCAR-4 ovarian) | TGI (MOLT-4 leukemia) | TGI (SNB-19 CNS) | TGI (SN12C renal) | TGI (RPMI-8226 leukemia) | TGI (NCI-H226 lung) | TGI (LOX IMVI melanoma) | TGI (RXF 393 renal) | TGI (NCI-H522 lung)
1 | O=C1c2ccccc2-c2nc(-c3ccccc3)cc3c2c1nc1ccccc13 | 65.7 µM | > 100 µM | 36.4 µM | 52.9 µM | 32.8 µM | 22 µM | 54.5 µM | 10 µM | > 100 µM | 
2 | COc1ccc(/C(=N/Nc2nc3ccccc3[nH]2)C(=O)O)cc1 | > 100 µM | > 100 µM | > 100 µM | > 100 µM | > 100 µM | > 100 µM | > 100 µM | > 100 µM |  | > 100 µM
3 | O=C1CCC2(O)C3Cc4ccc(Oc5nnnn5-c5ccccc5)c5c4C2(CCN3CC2CC2)C1O5 (configuration not stated) | > 100 µM | > 100 µM | > 100 µM | > 100 µM | > 100 µM | > 100 µM |  | 84.6 µM | > 100 µM | 61.6 µM
4 | N#Cc1c(Nc2nc3ccccc3s2)c2ccccc2n2c1nc1ccccc12 | > 100 µM | > 100 µM | > 100 µM | > 100 µM | > 100 µM | > 100 µM |  | > 100 µM |  | > 100 µM
5 | C/C=C/[C@H]1O[C@@](O)([C@@H](C)[C@H](O)[C@H](C)[C@H]2OC(=O)/C(OC)=C/C(C)=C/[C@@H](C)[C@@H](O)[C@@H](CC)[C@@H](O)[C@H](C)C/C(C)=C/C=C/[C@@H]2OC)C[C@H](OC2CC(O)C(OC(N)=O)C(C)O2)[C@@H]1C (some centres not stated) | 25 µM | 20.8 µM |  | 23.7 µM | 23.5 µM | 0.205 µM |  | 0.0614 µM | 37 µM | 7.39 µM
6 | Clc1nc(Nc2nc3ccccc3[nH]2)nc(Cl)c1Cc1ccccc1 | > 100 µM | > 100 µM | > 100 µM | > 100 µM | > 100 µM | > 100 µM | > 100 µM |  | > 100 µM | > 100 µM
7 | CCCCc1ccc(-n2sc3ncccc3c2=O)cc1 | 47.4 µM | 58 µM | 57.7 µM | > 100 µM | 37.7 µM | > 100 µM | 64.2 µM | 43.6 µM |  | 8.4 µM
8 | COc1ccc2c(c1OC)C(=O)O[C@@H]2[C@H]1c2cc3c(cc2CCN1C)OCO3 | > 100 µM | > 100 µM | > 100 µM | > 100 µM | > 100 µM | > 100 µM | > 100 µM | > 100 µM |  | > 100 µM
9 | COc1cc(OC)c2c(O)c(S(=O)(=O)c3ccc(C)cc3)c(=O)oc2c1 | > 100 µM | > 100 µM | > 100 µM | > 100 µM | > 100 µM | > 100 µM | > 100 µM |  | > 100 µM | > 100 µM
10 | Cc1ccc(SC[C@@]2(C(F)F)NC(=O)NC2=O)cc1 | > 100 µM | > 100 µM | > 100 µM | > 100 µM |  | > 100 µM | > 100 µM | > 100 µM | > 100 µM | > 100 µM
11 | C=CCC1(CC)C(=O)NC(=O)NC1=O | > 100 µM |  | > 100 µM | > 100 µM | > 100 µM | > 100 µM | > 100 µM | > 100 µM | > 100 µM | > 100 µM
